Legend:
[1] = test system: EPO mRNA; assay: mRNA encapsulation rate of EPO mRNA-encapsulating lipid particles; assay type: physicochemical; settings: lipid/nucleic acid 64 wt/wt
Procedure: (§1) The compounds described in Table 1, the neutral lipid, cholesterol (product name: Cholesterol HP; NIPPON FINE CHEMICAL CO., LTD.), and 1,2-dimyristoyl-rac-glycero-3-(methylpolyoxyethylene 2000) (hereinafter, called DMG-PEG2000) (product name: SUNBRIGHT® GM-020; NOF corporation) were dissolved in ethanol at a molar ratio in Table 1 such that the total lipid concentration became 20 mmol/L, thereby obtaining an oil phase.
(§2) As the neutral lipid, 1,2-distearoyl-sn-glycero-3-phosphocholine (product name: COATSOME® MC-8080; NOF corporation) (hereinafter, DSPC), or L-α-dioleoyl phosphatidylethanolamine (Hereinafter, DOPE) (product name: COATSOME® ME-8181; NOF corporation), or 1,2-dioleoyl-sn-glycero-3-phosphocholine (hereinafter, DOPC) (product name: COATSOME® MC-8181; NOF corporation) was used.
(§3) EPO mRNA (product name: CleanCap EPO mRNA (5moU); TriLink) was diluted with 50 mmol/L citrate buffer having a pH 4 such that the weight ratio of total lipid concentration to mRNA concentration is about 16:1 to 64:1, thereby obtaining a water phase. Then, the water phase and the oil phase were mixed together using NanoAssemblr (Precision NanoSystems) such that the volume ratio of water phase:oil phase was 3:1, and the mixed solution was 1.5-fold diluted with phosphate buffered saline (PBS), thereby obtaining a dispersion liquid of mRNA lipid particles. The dispersion liquid was dialyzed with a 10% aqueous sucrose solution using a dialysis cassette (Slide-A-Lyzer G2, MWCO: 10 kD, Thermo Fisher Scientific) to remove ethanol, thereby obtaining EPO mRNA-encapsulating lipid particles.
(§4) 15 to 30 μL of a 3 mol/L aqueous sodium acetate solution and 4.5 to 9 μL of glycogen were added to 30 to 60 μL of the lipid particles retaining mRNA, and 0.75 to 1.5 mL of ethanol was added thereto, so that only the nucleic acids were precipitated while the lipid was dissolved. Then, the supernatant was removed by centrifugation. The precipitates were air-dried for 15 minutes or longer, then water was added thereto to redissolve the precipitates, and the concentration thereof was measured using Nanodrop NF1000 (Thermo Fisher Scientific), thereby quantifying the total mRNA concentration.
(§5) The mRNA concentration was quantified using a Quant-iT RiboGreen RNA Assay Kit (Thermo Fisher Scientific) according to the protocol. First, a 20×TE buffer included in the above-described kit was diluted with water, thereby obtaining a 1×TE buffer. TE represents Tris/EDTA (ethylenediaminetetraacetic acid). In order to quantify only mRNA in the outer water phase, the dispersion liquid of lipid particles retaining mRNA was 10,000-fold diluted with the 1×TE buffer. 100 μL of the 10,000-fold diluted dispersion liquid of lipid particles was put into a 96-well plate, then 100 μL of a RiboGreen reagent (reagent included in the Quanti-iT Ribogreen RNA Assay Kit described above) 2,000-fold diluted with the 1×TE buffer was added to a sample, and fluorescence (excitation wavelength: 485 nm, fluorescence wavelength: 535 nm) was measured using a plate reader Infinite F200 (TECAN), thereby quantifying the mRNA concentration in the outer water phase.
(§6) By using the quantification results of the total mRNA concentration and the mRNA concentration in the outer water phase that were obtained through the above steps, the mRNA encapsulation rate of the mRNA lipid particles was calculated according to the following Equation.
(§7) mRNA encapsulation rate (%)=(total mRNA concentration-mRNA concentration in outer water phase)/total mRNA concentration×100

[2] = test system: FLuc mRNA; assay: mRNA encapsulation rate of FLuc mRNA-encapsulating lipid particles; assay type: physicochemical; settings: aminolipid 45 / DOPE 10 / cholesterol 43.5 / DMG-PEG2000 1.5 mol %, lipid/nucleic acid 32 wt/wt
Procedure: as §1, with “Table 2,” for “Table 1,”, “HP; NTPPON” for “HP; NIPPON”, “DMG-PEG2000)” for “DMG-PEG2000) (product name: SUNBRIGHT® GM-020; NOF corporation)”, “Table 2” for “Table 1”
(§8) As the neutral lipid, 1,2-distearoyl-sn-glycero-3-phosphocholine (product name: COATSOME® MC-8080; NOF corporation) was used in a case of Comparative Example 1, and L-α-dioleoylphosphatidylethanolamine (product name: COATSOME® MC-8181; NOF corporation) was used in a case other than Comparative Example 1.
as §3, with “FLuc” for “EPO”, “(5 moU);” for “(5moU);”, “19:1” for “16:1”, “64:1,” for “64:1, thereby”
as §4, §5, §6, §7

[3] = Particle size of EPO mRNA-encapsulating lipid particles; assay type: physicochemical; settings: lipid/nucleic acid 64 wt/wt
Procedure: as §1, §2, §3
(§9) The particle size of the mRNA-encapsulating lipid particles was measured by 10-fold diluting the dispersion liquid of lipid particle with phosphate buffered saline (PBS) using Zeta-potential & Particle size Analyzer ELS-Z2 (Otsuka Electronics Co., Ltd.).

[4] = Particle size of FLuc mRNA-encapsulating lipid particles; assay type: physicochemical; settings: aminolipid 45 / DOPE 10 / cholesterol 43.5 / DMG-PEG2000 1.5 mol %, lipid/nucleic acid 32 wt/wt
Procedure: as §1, with “Table 2,” for “Table 1,”, “HP; NTPPON” for “HP; NIPPON”, “DMG-PEG2000)” for “DMG-PEG2000) (product name: SUNBRIGHT® GM-020; NOF corporation)”, “Table 2” for “Table 1”
as §8
as §3, with “FLuc” for “EPO”, “(5 moU);” for “(5moU);”, “19:1” for “16:1”, “64:1,” for “64:1, thereby”
as §9

[5] = test system: human EPO; assay: Measurement of EPO enzyme activity (EPO protein in blood plasma of mice after intravenous administration of EPO mRNA lipid particles); assay type: in vivo; settings: C57BL/6J mice, tail-vein i.v., mRNA 0.1 mg/kg, plasma 20 to 24 hours, lipid/nucleic acid 64 wt/wt
Procedure: as §1, §2, §3
The dispersion liquid of mRNA lipid particles prepared in above-described <Preparation of EPO mRNA-encapsulating lipid particles> was tail-vein intravenously administered to C57BL/6J mice at a mRNA dosage of 0.1 mg/kg. 20 to 24 hours after the administration, blood was collected from the caudal vena cava, thereby obtaining blood plasma. The human EPO enzyme activity was quantified by using the obtained blood plasma and ab119522 Erythropoietin (EPO) Human Elisa Kit (Abcam.plc). The quantitative value is described as a relative amount of EPO protein in a case where Comparative Example 1 is 1.

[6] = aminolipid 50 / DOPE 10 / cholesterol 38.5 / DMG-PEG2000 1.5 mol %
[7] = aminolipid 45 / DOPE 10 / cholesterol 43.5 / DMG-PEG2000 1.5 mol %

| Structure (SMILES) | Nucleic acid encapsulation rate [1, 6] | Nucleic acid encapsulation rate [2] | Particle size [3, 6] | Particle size [4] | Relative amount of EPO protein (with respect to Comparative Example 1) [5, 6] | Nucleic acid encapsulation rate [1, 7] | Particle size [3, 7] | Relative amount of EPO protein (with respect to Comparative Example 1) [5, 7] |
| --- | --- | --- | --- | --- | --- | --- | --- | --- |
| CCCCCCCOC(=O)CCCC(CCCC(=O)OCCCCCCC)OC(=O)OCCN(CCCN(CC)CC)CCOC(=O)OC(CCCC(=O)OCCCCCCC)CCCC(=O)OCCCCCCC [Example 38, Diheptyl 11-(3-(diethylamino)propyl)-5,17-bis(4-(heptyloxy)-4-oxobutyl)-7,15-dioxo-6,8,14,16-tetraox a-11-azahenicosanedioate] | 100.0% | 99.7% | 101.4 nm | 116 nm | 2.13 |  |  |  |
| CCCCCCSCCOC(=O)CCCC(CCCC(=O)OCCSCCCCCC)OC(=O)OCCN(CCOC(=O)OC(CCCC(=O)OCCSCCCCCC)CCCC(=O)OCCSCCCCCC)CCN(CC)CC [Example 43, Bis(2-(hexylthio)ethyl) 11-(2-(diethylamino)ethyl)-5,17-bis(4-(2-(hexylthio)ethoxy)-4-oxobutyl)-7,15-dioxo-6,8,14,16-tetraoxa-11-azahenicosanedioate] |  | 100.0% |  | 144 nm |  | 95.7% | 155.0 nm | 3.12 |
| CCCCCCCOC(=O)CCC(CCC(=O)OCCCCCCC)OC(=O)OCCN(CCOC(=O)OC(CCC(=O)OCCCCCCC)CCC(=O)OCCCCCCC)CCN(CC)CC [Example 39, Diheptyl 10-(2-(diethylamino)ethyl)-4,16-bis(3-(heptyloxy)-3-oxopropyl)-6,14-dioxo-5,7,13,15-tetraox a-10-azanonadecanedioate] | 93.8% | 90.1% | 147.2 nm | 141.1 nm | 8.03 |  |  |  |
| CCCCCC(CCCCC)COC(=O)CCCC(CCCC)OC(=O)OCCN(CCOC(=O)OC(CCCC)CCCC(=O)OCC(CCCCC)CCCCC)CCN(CC)CC (stereo not shown) [Example 22, Bis(2-pentylheptyl) 5,17-dibutyl-11-(2-(diethylamino)ethyl)-7,15-dioxo-6,8,14,16-tetraoxa-11-azahenicosanedioate] | 98.6% | 98.7% | 78.3 nm | 95 nm | 4.69 |  |  |  |
| CCCCCC(CCCCC)COC(=O)CCCC(C)OC(=O)OCCN(CCOC(=O)OC(C)CCCC(=O)OCC(CCCCC)CCCCC)CCN(CC)CC (stereo not shown) [Example 19, Bis(2-pentylheptyl) 11-(2-(diethylamino)ethyl)-5,17-dimethyl-7,15-dioxo-6,8,14,16-tetraoxa-11-azahenicosanedio ate] | 100.0% |  | 147.0 nm |  | 1.26 |  |  |  |
| CCCCCCC(CCCC(=O)OCC(CCCCC)CCCCC)OC(=O)OCCN(CCCCN(CC)CC)CCOC(=O)OC(CCCCCC)CCCC(=O)OCC(CCCCC)CCCCC (stereo not shown) [Example 14, Bis(2-pentylheptyl) 11-(4-(diethylamino)butyl)-5,17-dihexyl-7,15-dioxo-6,8,14,16-tetraoxa-11-azahenicosanedioate] | 98.8% |  | 75.9 nm |  | 3.85 |  |  |  |
| CCN(CC)CCN(CCOC(=O)OC(CCCC(=O)OCCCCCCCCSC)CCCC(=O)OCCCCCCCCSC)CCOC(=O)OC(CCCC(=O)OCCCCCCCCSC)CCCC(=O)OCCCCCCCCSC [Example 44, Bis(8-(methylthio)octyl) 11-(2-(diethylamino)ethyl)-5,17-bis(4-((8-(methylthio)octyl)oxy)-4-oxobutyl)-7,15-dioxo-6,8,14,16-tetraoxa-11-azahenicosanedioate] |  | 100.0% |  | 170.5 nm |  | 81.2% | 201.9 nm | 1.39 |
| CCCCCCC(CCCC(=O)OCC(CCCCC)CCCCC)OC(=O)OCCCN(CCCOC(=O)OC(CCCCCC)CCCC(=O)OCC(CCCCC)CCCCC)CCN(CC)CC (stereo not shown) [Example 15, Bis(2-pentylheptyl) 12-(2-(diethylamino)ethyl)-5,19-dihexyl-7,17-dioxo-6,8,16,18-tetraoxa-12-azatricosanedioate] | 97.5% |  | 76.8 nm |  | 1.92 |  |  |  |
| CCCCCCCCOC(=O)CCCC(CCCC(=O)OCCCCCCCC)OC(=O)OCCN(CCOC(=O)OC(CCCC(=O)OCCCCCCCC)CCCC(=O)OCCCCCCCC)CCN(CC)CC [Example 33, Dioctyl 11-(2-(diethylamino)ethyl)-5,17-bis(4-(octyloxy)-4-oxobutyl)-7,15-dioxo-6,8,14,16-tetraoxa-1 1-azahenicosanedioate] | 88.8% |  | 132.8 nm |  | 2.70 |  |  |  |

Source: patent publication US20240124389A1, “COMPOUND OR SALT THEREOF, LIPID PARTICLES, AND PHARMACEUTICAL COMPOSITION” (FUJIFILM Corporation, priority 2021, published 2024)
